Reference: patent US10953026B2, “N-acetyl mannosammine as a therapeutic agent” (THE UNITED STATES OF AMERICA, as represented by the …, priority 2007, dated 2021)
Several values for one entry are separate records, joined by “and”; a condition that tells them apart may be missing. Identical values can stand only once. Entries after “also recorded” stand apart in the source; their conditions may differ.

Assays:
Gne^M712T/M712T mice [1] = experiment: Rescue by ManNAc feeding: survival of homozygous mutant pups (ManNAc in drinking water of breeding pairs); type: in vivo, mouse
Text: Gne^M712T/M712T mice. Gne^M712T/M712T knockin mice were generated by targeting the M712T (ATG to ACG) mutation of exon 12 of the murine Gne gene (Gne, Uae1, GenBank NM_015828) (FIG. 2A). The nucleotide sequence for this Gne, Uae1 allele (GenBank NM_015828) without the mutation is shown below for easy reference (SEQ ID NO:3).
The mutant mice were maintained in the C57BL/6J background. Animals were housed in an accredited specific pathogen-free facility in accordance with accepted guidelines. Cages were ventilated in a temperature- and light-controlled environment (22° C., 30%-70% humidity, 12-hour light/12-hour dark cycle). The mice were fed irradiated chow (Prolab 5P75 Isopro 3000; PMI Nutrition International) and sterile water ad libitum. All euthanasia was performed by CO2 inhalation followed by cervical dislocation.
(§1) Breeding pairs of 6-week-old GneM^712T/+ mice were divided into 3 groups. Group I consisted of 9 GneM^712T/+ breeding pairs, who were administered untreated sterilized tap water. Group II consisted of 1 breeding pair of Gne^+/+ mice (wild-type control) and 6 GneM^712T/+ breeding pairs, who were administered water containing 1 mg/ml (˜0.2 g/kg/day) ManNAc (Sigma-Aldrich). […] Group III consisted of 1 Gne^+/+ breeding pair and 7 GneM^712T/+ breeding pairs, who were administered water supplemented with 5 mg/ml (˜1.0 g/kg/day) ManNAc. Water was changed twice weekly. Nursing females continued to be supplied with ManNAc. All mice were weaned from ManNAc at 21 days. Selected whole litters were euthanized at age P2, P6, and P19 for histological, genetic, biochemical, or ultrastructural analysis.
Differences between data groups were evaluated for significance using the 2-tailed Student's t test of unpaired data. For Mendelian distribution analysis, a goodness-of-fit (χ2) test was performed, while for comparisons of survival between treated and untreated mice of all genotypes (Gne^+/+, GneM^712T/+, and GneM^712T/M712T), a 2-tailed Fisher's exact test using a 2×3 table was employed. All data are presented as the mean±SD. A P value less than 0.05 was considered statistically significant.

[2] = Tolerability and growth of ManNAc-treated mice; type: in vivo
Description: as §1

Gne^M712T/M712T mice [3] = experiment: Mouse histology (H&E) after ManNAc treatment; type: in vivo
Description: Mouse tissues were collected, formalin fixed (10%) and paraffin embedded. Tissue sections ([…]) were stained with H&E following standard procedures (American Histolabs) or subjected to immunohistochemistry with a variety of primary antibodies. Formalin-fixed tissues were deparaffinized in HistoClear II (National Diagnostics) and […] in a series of ethanol solutions. Antigen retrieval was performed for sections that were to be stained with antibodies against Gne/Mnk (by boiling 5 minutes in citric acid-based solution; Vector Laboratories) and against dystrophin (by boiling in 1 mM EDTA according the manufacturer's protocol; AbCam). The sections were blocked (2% BSA, 10% donkey serum, and 0.1% Triton X-100 in PBS) and incubated with primary antibodies (Gne/Mnk 1:50; laminin 1:25; dystrophin 1:50) overnight at 4° C., followed by incubation with the secondary antibody, Alexa Fluor 488-conjugated donkey anti-rabbit (1:500 in blocking solution) (Invitrogen). The sections were mounted in VECTASHIELD Mounting Medium (Vector Laboratories) and viewed and digitally imaged with a Zeiss Axiovert 200M microscope (Zeiss).
as §1

Gne^M712T/M712T mice [4] = experiment: Electron microscopy of kidney glomeruli after ManNAc treatment; type: in vivo, mouse; conditions: age P19, versus untreated Gne^M712T/M712T
Description: Kidney samples were fixed overnight at 4° C. in 2% glutaraldehyde in 0.1 M cacodylate buffer (pH 7.4) and washed with cacodylate buffer. After postfixation with 1% OsO4 for 2 hours and a second wash with 0.1 M cacodylate buffer, the tissues were serially dehydrated in ethanol and embedded in Eponate 12 resin (Ted Pella). Thin sections (˜80 nm) were obtained using a Leica Ultracut UCT Ultramicrotome (Leica Microsystems), placed onto 400 mesh copper grids, and stained with saturated uranyl acetate in 50% methanol followed by lead citrate. The grids were viewed with a Philips 410 electron microscope (FEI Company) at 80 kV, and images were recorded on Kodak SO-163 film (Kodak).
as §1

Gne/Mnk epimerase = experiment: Gne-epimerase enzymatic assay in skeletal muscle of ManNAc-treated mice; type: in vivo, mouse
Description: as §1
Mouse kidney and skeletal muscle (quadriceps) tissues were homogenized and subjected to the Gne-epimerase enzymatic assay as previously described (11, 58). This assay was based on incubation with radiolabeled substrate (Uridine diphosphate N-acetyl glucosamine [1-^3H]; American Radiolabeled Chemicals Inc.) and detection of radiolabeled product ([^3H]ManNAc) upon separation of oligosaccharides by high-pH anion-exchange chromatography with pulsed amperometric detection (Dionex).

Gne/Mnk protein = experiment: Immunoblots of muscle and kidney extracts with anti-Gne/Mnk antibodies; type: in vivo, mouse
Text: (§2) A rabbit polyclonal antibody was custom prepared against a Gne/Mnk peptide comprising amino acids 588-607 ([…], SEQ ID NO:8), coupled to keyhole limpet hemocyanine, and affinity purified against the corresponding antigenic peptide (Covance). The following additional primary antibodies were commercially obtained: dystrophin (catalog no. ab15277; Abcam); α-dystroglycan (clone IIH6C4; Upstate Biotechnology); laminin-1 (catalog no. L9393; Sigma-Aldrich); podocalyxin (catalog no. PODX11-A; Alpha Diagnostic International); podocin (catalog no. P0372; Sigma-Aldrich); laminin β1 (catalog no. MAB1928; Millipore); desmin (catalog no. 1466-1; Epitomics); α-SMA (SPM332; GeneTex Inc.); PSA-NCAM (catalog no. MAB5324; Millipore); and β-actin (catalog no. AAN01; Cytoskeleton).
Mouse tissues (age P2) were extracted, homogenized in CelLytic buffer consisting of a mild detergent, bicine buffer, and 150 mM NaCl (Sigma-Aldrich) supplemented with protease inhibitors (Complete Mini; Roche Applied Science). The lysates were sonicated and cleared by centrifugation (1000 g for 10 minutes), and the resulting supernatants were assayed for protein (BCA Protein Assay; Pierce Biotechnology). For the neuraminidase enzymatic treatments (FIG. 6E), protein homogenates ([…]) were incubated for 30 min at 37° C. with 1 mU/mg of neuraminidase (catalog no. N6514; Sigma-Aldrich). Equal amounts of protein ([…]) were electrophoresed on 4%-12% Tris-Glycine gels (Novex; Invitrogen), and electroblotted onto […] Hybond ECL nitrocellulose membranes (GE Healthcare). The membranes were blocked (10% fat-free milk) and incubated with primary antibodies followed by HRP-conjugated secondary antibodies (GE Healthcare). Results were visualized with ECL (ECL Western Blotting Detection Reagents; GE Healthcare) and exposure to CL-XPosure Film (Pierce Biotechnology). Densitometry was performed on the digital images obtained with a Kodak Image Station and software (PerkinElmer). The protein levels were normalized to those of β-actin to correct for differences in protein loading and/or transfer. […]

laminin-1 = experiment: Immunoblots of kidney extracts with laminin-1 antibodies; type: in vivo, mouse; conditions: Gne^+/+ and Gne^M712T/M712T littermates
Text: as §2
(§3) Mouse tissues (age P2) were extracted, homogenized in CelLytic buffer consisting of a mild detergent, bicine buffer, and 150 mM NaCl (Sigma-Aldrich) supplemented with protease inhibitors (Complete Mini; Roche Applied Science). The lysates were sonicated and cleared by centrifugation (1000 g for 10 minutes), and the resulting supernatants were assayed for protein (BCA Protein Assay; Pierce Biotechnology). For the neuraminidase enzymatic treatments (FIG. 6E), protein homogenates (25 mg) were incubated for 30 min at 37° C. with 1 mU/mg of neuraminidase (catalog no. N6514; Sigma-Aldrich). […]

PSA-NCAM = experiment: Immunoblots with PSA-NCAM antibodies (sialylation status); type: in vivo, mouse
Text: as §2
as §3, with “Biotechnology).” for “Biotechnology). For the neuraminidase enzymatic treatments (FIG. 6E), protein homogenates (25 mg) were incubated for 30 min at 37° C. with 1 mU/mg of neuraminidase (catalog no. N6514; Sigma-Aldrich).”
The degree of sialylation of two heavily sialylated marker proteins, PSA-NCAM and podocalyxin was evaluated. […]

podocalyxin = experiment: Immunoblots of kidney extracts with podocalyxin antibodies (sialylation status); type: in vivo, mouse; conditions: after ManNAc treatment, P2
Text: as §2
The lysates were sonicated and cleared by centrifugation (1000 g for 10 minutes), and the resulting supernatants were assayed for protein (BCA Protein Assay; Pierce Biotechnology). For the neuraminidase enzymatic treatments (FIG. 6E), protein homogenates (25 mg) were incubated for 30 min at 37° C. with 1 mU/mg of neuraminidase (catalog no. N6514; Sigma-Aldrich). Equal amounts of protein ([…]) were electrophoresed on 4%-12% Tris-Glycine gels (Novex; Invitrogen), and electroblotted onto […] Hybond ECL nitrocellulose membranes (GE Healthcare). […]

[5] = tested on: Gne-deficient mouse embryonic stem cells; conditions: growth medium supplemented with ManNAc; cited from earlier work
[6] = single dose of 0.142 g/kg/day; cited from earlier work
cultured cells = conditions: incubation of cultured cells; cited from earlier work
[7] = ~1.0 g/kg/d in drinking water, mice
[8] = 3.5 months of age, ManNAc until P21

SMILES: CC(=O)N[C@H]1[C@@H](O)[C@H](O)[C@@H](CO)O[C@H]1O [ManNAc, N-acetyl-D-mannosamine]
- pups died at age P1-P3 (number) (Gne^M712T/M712T mice [1]; 1 mg/ml (~0.2 g/kg/d), 7 litters): 13
- surviving homozygous Gne^M712T/M712T mice beyond age P3 (Gne^M712T/M712T mice [1]; 1 mg/ml (~0.2 g/kg/day) in drinking water, 51 offspring): no surviving homozygous
- homozygous mutant pups died at age P1-P3 (number) (Gne^M712T/M712T mice [1]; 5 mg/ml (~1 g/kg/d), 13 litters): 14
- Gne^M712T/M712T mice that died between P6 and P12, of the twelve that survived past P3 (Gne^M712T/M712T mice [1]; 5 mg/ml (~1.0 g/kg/day)): nine
- Gne^M712T/M712T pups surviving beyond P3 (number) (Gne^M712T/M712T mice [1]; 5 mg/ml (~1.0 g/kg/day) in drinking water, 102 newborns, P=0.01 vs 1 untreated survivor): 12
- Gne^M712T/M712T mice that survived past P21 (Gne^M712T/M712T mice [1]; 5 mg/ml (~1.0 g/kg/day), ManNAc ceased at P21): Two
- myopathic features of the surviving Gne^M712T/M712T mouse (Gne^M712T/M712T mice [1]; 6 months old, ManNAc until P21): no obvious myopathic features
- survival beyond P3, share of Gne^M712T/M712T pups (Gne^M712T/M712T mice [1]; ManNAc administration): 43%
- size of surviving Gne^M712T/M712T mice versus littermates ([2]; ManNAc ~1 g/kg/d): remained smaller than their littermates
- weight of surviving Gne^M712T/M712T mice relative to wild-type littermates ([2]; ManNAc ~1.0 g/kg/day): 70%-100%
- side effects [2, 7]: no side effects were attributed to the treatment
- tolerability [2, 7]: well tolerated
- kidney histology of Gne^M712T/M712T survivor (urinary space and tubules) (Gne^M712T/M712T mice [3]; [8]): mild red blood cell infiltrations
- skeletal muscle histology of Gne^M712T/M712T survivor (Gne^M712T/M712T mice [3]; [8]): no structural or inflammatory abnormalities
- cystic tubular dilatations in cortex and medulla (Gne^M712T/M712T mice [3]; age P6): fewer cystic tubular dilatations
- kidney histology compared with untreated Gne^M712T/M712T mice at P2 (Gne^M712T/M712T mice [3]; age P6): significant histological improvement
- abnormalities in liver, heart or skeletal muscle tissues (Gne^M712T/M712T mice [3]; age P6, treated Gne^M712T/M712T mice): no abnormalities
- red blood cell infiltrates in tubules and Bowman space (Gne^M712T/M712T mice [3]; age P6, versus untreated at P2): reduced red blood cell infiltrates; also recorded: less severe
- filtration slits / open slit diaphragms (Gne^M712T/M712T mice [4]): greater number of open slit diaphragms; also recorded: improved
- overall integrity of the GBM (Gne^M712T/M712T mice [4]): significantly improved
- podocyte foot processes (fusion, flattening, formation) (Gne^M712T/M712T mice [4]): less fusion and flattening; also recorded: improved
- Gne activity in Gne^M712T/M712T muscle, of untreated Gne^+/+ mean (Gne/Mnk epimerase; homozygous mutant skeletal muscle, after ManNAc (19.4% untreated), n=7, P=0.05): 31% (±8.4)
- Gne activity in Gne^+/+ muscle, of untreated Gne^+/+ mean (Gne/Mnk epimerase; wild-type skeletal muscle, after ManNAc, n=3, P=0.2): 114% (±19.7)
- Gne/Mnk protein in Gne^M712T/M712T kidney compared with Gne^+/+ littermates (Gne/Mnk protein; after ManNAc (32.1% untreated), relative to β-actin, P=0.006): 62.2%
- Gne/Mnk protein in Gne^M712T/M712T muscle compared with Gne^+/+ littermates (Gne/Mnk protein; after ManNAc (38.5% untreated), relative to β-actin, P=0.12): 68.8%
- Gne/Mnk protein expression in Gne^M712T/M712T tissues versus untreated (Gne/Mnk protein; muscle and kidney, ManNAc feeding): increased
- laminin-1 intensity / pattern in kidney without or with ManNAc treatment (laminin-1): No difference
- PSA-NCAM expression in muscle and kidney upon treatment (PSA-NCAM; P2): no change
- increase of PSA-NCAM signal intensity in Gne^M712T/M712T brain versus untreated (PSA-NCAM; brain extracts, P=0.08): 2%-28% and 2% to 28%
- sialylation of podocalyxin in Gne^M712T/M712T kidney (podocalyxin): markedly improved; also recorded: changed significantly
- sialylation of hyposialylated cells [5]: became resialylated
- safety in humans [6]: evidence of the safety

SMILES: CC(=O)CCC(=O)N[C@@H]1C(O)O[C@H](CO)[C@@H](O)[C@@H]1O (stereo partly shown) [ManLev, N-levulinoylmannosamine]
- incorporation of sialic acid analogs (SiaLev or SiaNAz) into cell surface glycoconjugates (cultured cells): incorporation of the downstream sialic acid analogs

SMILES: [N-]=[N+]=NCC(=O)N[C@@H]1C(O)O[C@H](CO)[C@@H](O)[C@@H]1O (stereo partly shown) [ManNAz, N-azidoacetyl-mannosamine]
- incorporation of sialic acid analogs (SiaLev or SiaNAz) into cell surface glycoconjugates (cultured cells): incorporation of the downstream sialic acid analogs
